Assay results as given in ChEMBL document CHEMBL1255248, “Fitness of Streptococcus pneumoniae fluoroquinolone-resistant strains with topoisomerase IV recombinant genes” (2008).
Converted amounts (≈) assume the structure as drawn.

What was measured:
Streptococcus pneumoniae [1] = test: Antimicrobial activity against ciprofloxacin-resistant Streptococcus pneumoniae T23 harboring gyrA mutant gene by agar dilution method
Streptococcus pneumoniae [2] = test: Antimicrobial activity against ciprofloxacin-resistant Streptococcus pneumoniae T24 harboring gyrA mutant gene by agar dilution method
Streptococcus pneumoniae [3] = test: Antimicrobial activity against ciprofloxacin-resistant Streptococcus pneumoniae T7 harboring gyrA mutant gene by agar dilution method
Streptococcus pneumoniae [4] = test: Antimicrobial activity against ciprofloxacin-resistant Streptococcus pneumoniae T3 harboring gyrA mutant gene by agar dilution method
Streptococcus pneumoniae [5] = test: Antimicrobial activity against ciprofloxacin-resistant Streptococcus pneumoniae T6 harboring parC mutant gene by agar dilution method
Streptococcus pneumoniae [6] = test: Antimicrobial activity against ciprofloxacin-resistant Streptococcus pneumoniae T2 harboring gyrA mutant gene by agar dilution method
Streptococcus pneumoniae [7] = test: Antimicrobial activity against ciprofloxacin-resistant Streptococcus pneumoniae T12 harboring gyrA mutant gene by agar dilution method
Streptococcus pneumoniae [8] = test: Antimicrobial activity against ciprofloxacin-resistant Streptococcus pneumoniae T28 harboring gyrA mutant gene by agar dilution method
Streptococcus pneumoniae [9] = test: Antimicrobial activity against ciprofloxacin-resistant Streptococcus pneumoniae T26 harboring parC mutant gene by agar dilution method
Streptococcus pneumoniae [10] = test: Antimicrobial activity against ciprofloxacin-resistant Streptococcus pneumoniae T8 harboring gyrA mutant gene by agar dilution method
Streptococcus pneumoniae [11] = test: Antimicrobial activity against ciprofloxacin-resistant Streptococcus pneumoniae T20 harboring gyrA mutant gene by agar dilution method
Streptococcus pneumoniae [12] = test: Antimicrobial activity against ciprofloxacin-resistant Streptococcus pneumoniae T1 harboring parC mutant gene by agar dilution method
Streptococcus pneumoniae [13] = test: Antimicrobial activity against ciprofloxacin-resistant Streptococcus pneumoniae T29 harboring gyrA mutant gene by agar dilution method
Streptococcus pneumoniae [14] = test: Antimicrobial activity against ciprofloxacin-resistant Streptococcus pneumoniae T11 harboring parE-ant-parC mutant gene by agar dilution method
Streptococcus pneumoniae [15] = test: Antimicrobial activity against ciprofloxacin-resistant Streptococcus pneumoniae T18 harboring gyrA mutant gene by agar dilution method
Streptococcus pneumoniae [16] = test: Antimicrobial activity against ciprofloxacin-resistant Streptococcus pneumoniae T30 harboring gyrA mutant gene by agar dilution method
Streptococcus pneumoniae [17] = test: Antimicrobial activity against ciprofloxacin-resistant Streptococcus pneumoniae T13 harboring gyrA mutant gene by agar dilution method
Streptococcus pneumoniae [18] = test: Antimicrobial activity against ciprofloxacin-resistant Streptococcus pneumoniae T9 harboring gyrA mutant gene by agar dilution method
Streptococcus pneumoniae [19] = test: Antimicrobial activity against ciprofloxacin-resistant Streptococcus pneumoniae T21 harboring parC mutant gene by agar dilution method
Streptococcus pneumoniae [20] = test: Antimicrobial activity against ciprofloxacin-resistant Streptococcus pneumoniae T4 harboring gyrA mutant gene by agar dilution method
Streptococcus pneumoniae [21] = test: Antimicrobial activity against ciprofloxacin-resistant Streptococcus pneumoniae T14 harboring gyrA mutant gene by agar dilution method
Streptococcus pneumoniae [22] = test: Antimicrobial activity against ciprofloxacin-resistant Streptococcus pneumoniae T19 harboring gyrA mutant gene by agar dilution method
Streptococcus pneumoniae [23] = test: Antimicrobial activity against ciprofloxacin-resistant Streptococcus pneumoniae T16 harboring parC mutant gene by agar dilution method
Streptococcus pneumoniae [24] = test: Antimicrobial activity against ciprofloxacin-resistant Streptococcus pneumoniae T25 harboring gyrA mutant gene by agar dilution method

Q: Which results are given for `O=C(O)c1cn(C2CC2)c2cc(N3CCNCC3)c(F)cc2c1=O` [CIPROFLOXACIN]?
A: MIC (Streptococcus pneumoniae [1]): 16 µg/mL (≈ 48.3 µM); MIC (Streptococcus pneumoniae [2]): 16 µg/mL (≈ 48.3 µM); MIC (Streptococcus pneumoniae [3]): 32 µg/mL (≈ 96.6 µM); MIC (Streptococcus pneumoniae [4]): 32 µg/mL (≈ 96.6 µM); MIC (Streptococcus pneumoniae [5]): 2 µg/mL (≈ 6.04 µM); MIC (Streptococcus pneumoniae [6]): 32 µg/mL (≈ 96.6 µM); MIC (Streptococcus pneumoniae [7]): 32 µg/mL (≈ 96.6 µM); MIC (Streptococcus pneumoniae [8]): 32 µg/mL (≈ 96.6 µM); MIC (Streptococcus pneumoniae [9]): 4 µg/mL (≈ 12.1 µM); MIC (Streptococcus pneumoniae [10]): 32 µg/mL (≈ 96.6 µM); MIC (Streptococcus pneumoniae [11]): 32 µg/mL (≈ 96.6 µM); MIC (Streptococcus pneumoniae [12]): 4 µg/mL (≈ 12.1 µM); MIC (Streptococcus pneumoniae [13]): 32 µg/mL (≈ 96.6 µM); MIC (Streptococcus pneumoniae [14]): 2 µg/mL (≈ 6.04 µM); MIC (Streptococcus pneumoniae [15]): 64 µg/mL (≈ 193 µM); MIC (Streptococcus pneumoniae [16]): 32 µg/mL (≈ 96.6 µM); MIC (Streptococcus pneumoniae [17]): 32 µg/mL (≈ 96.6 µM); MIC (Streptococcus pneumoniae [18]): 32 µg/mL (≈ 96.6 µM); MIC (Streptococcus pneumoniae [19]): 2 µg/mL (≈ 6.04 µM); MIC (Streptococcus pneumoniae [20]): 32 µg/mL (≈ 96.6 µM); MIC (Streptococcus pneumoniae [21]): 32 µg/mL (≈ 96.6 µM); MIC (Streptococcus pneumoniae [22]): 32 µg/mL (≈ 96.6 µM); MIC (Streptococcus pneumoniae [23]): 2 µg/mL (≈ 6.04 µM); MIC (Streptococcus pneumoniae [24]): 16 µg/mL (≈ 48.3 µM)
